From US20230416228A1 (Forkhead Biotherapeutics, Inc., priority 2020, published 2023)
Counter-ions that a name gives are not always drawn.

Target: T1, human FOXO1 (constitutively active form Thr24Ala, Ser256Ala, Ser319Ala) (Homo sapiens, UniProt Q12778, S256A/S319A/T24A)
T1 construct: expressed in transfected cells; host or cells: HEK293 cells transfected with pcDNA3.1 plasmid
Assay: FOXO1 inhibitor activity assay: cell-based transcriptional (luciferase) reporter assay in HEK293 cells
Settings: HEK293 cells transfected with insulin response element firefly luciferase reporter, FOXO1 and Renilla luciferase; 10-point dose response 50 μM to 2.5 nM; 24 hours
In short: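 IC50 and maximal inhibition were fitted by 4-parameter logistic regression on normalized firefly/Renilla luciferase ratios. The 0% reference used RFP in place of FOXO1, and the 100% reference was DMSO-only with all plasmids.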

T1 sequence (Q12778 whole entry T24A/S256A/S319A): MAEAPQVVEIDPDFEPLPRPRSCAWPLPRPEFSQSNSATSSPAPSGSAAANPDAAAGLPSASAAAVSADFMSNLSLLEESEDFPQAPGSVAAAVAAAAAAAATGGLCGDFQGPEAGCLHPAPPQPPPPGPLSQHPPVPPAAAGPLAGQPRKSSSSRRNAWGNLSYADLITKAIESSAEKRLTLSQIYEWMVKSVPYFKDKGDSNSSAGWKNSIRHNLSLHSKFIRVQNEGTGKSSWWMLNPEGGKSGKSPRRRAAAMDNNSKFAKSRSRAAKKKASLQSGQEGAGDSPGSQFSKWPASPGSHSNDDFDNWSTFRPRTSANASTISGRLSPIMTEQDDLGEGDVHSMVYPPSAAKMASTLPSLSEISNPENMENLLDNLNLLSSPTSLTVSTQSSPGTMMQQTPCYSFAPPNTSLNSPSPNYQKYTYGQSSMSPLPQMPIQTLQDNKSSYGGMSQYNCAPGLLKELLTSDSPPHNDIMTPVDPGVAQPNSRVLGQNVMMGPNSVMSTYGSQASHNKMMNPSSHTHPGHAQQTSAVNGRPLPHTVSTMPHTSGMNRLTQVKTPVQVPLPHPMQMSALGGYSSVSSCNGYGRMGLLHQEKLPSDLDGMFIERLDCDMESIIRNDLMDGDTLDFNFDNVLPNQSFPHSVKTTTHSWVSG

Row | SMILES | IC50 [nM]
1 | CN(C)C1CCN(c2ccc(C(=O)Nc3cc(-c4nc5cc(F)ccc5[nH]4)n(C)n3)cn2)CC1 [Compound A-133, 6-[4-(dimethylamino)-1-piperidyl]-N-[5-(5-fluoro-1H-benzimidazol-2-yl)-1-methyl-pyrazol-3-yl]pyridine-3-carboxamide] | 100 to 300
2 | Cn1nc(NC(=O)c2ccc(N3CCNC(=O)C3)nc2)cc1-c1nc2ccccc2[nH]1 [Compound A-221, N-[5-(1H-benzimidazol-2-yl)-1-methyl-pyrazol-3-yl]-6-(3-oxopiperazin-1-yl)pyridine-3-carboxamide] | 300 to 1000
3 | CN1CCN(c2ccc(C(=O)Nc3cc(-c4nc5ccccc5[nH]4)n(C)n3)cn2)CC1=O [Compound A-246, N-[5-(1H-benzimidazol-2-yl)-1-methyl-pyrazol-3-yl]-6-(4-methyl-3-oxo-piperazin-1-yl)pyridine-3-carboxamide] | 100 to 300
4 | Cn1nc(NC(=O)c2ccc(N3CCNC(CO)C3)nc2)cc1-c1nc2ccccc2[nH]1 (centres unmarked) [Compound A-258, N-[5-(1H-benzimidazol-2-yl)-1-methyl-pyrazol-3-yl]-6-[3-(hydroxy-methyl)piperazin-1-yl]pyridine-3-carboxamide] | 300 to 1000
5 | COC1CN(c2ccc(C(=O)Nc3cc(-c4nc5cccc(F)c5[nH]4)[nH]n3)cn2)C1 [Compound A-131, N-[5-(7-fluoro-1H-benzimidazol-2-yl)-1H-pyrazol-3-yl]-6-(3-methoxy-azetidin-1-yl)pyridine-3-carboxamide] | 100 to 300
6 | COC1CN(c2ccc(C(=O)Nc3cc(-c4nc5ccccc5[nH]4)n(CCO)n3)cn2)C1 [Compound A-196, N-[5-(1H-benzimidazol-2-yl)-1-(2-hydroxyethyl)pyrazol-3-yl]-6-(3-methoxyazetidin-1-yl)pyridine-3-carboxamide] | > 1000
7 | CC1(O)CCCN(c2ccc(C(=O)Nc3cc(-c4nc5ccccc5[nH]4)[nH]n3)cn2)C1 (centres unmarked) [Compound A-59, N-[5-(1H-benzimidazol-2-yl)-1H-pyrazol-3-yl]-6-(3-hydroxy-3-methyl-1-piperidyl)pyridine-3-carboxamide] | 300 to 1000
8 | COCCOc1ccc(C(=O)Nc2cc(-c3nc4ccccc4[nH]3)[nH]n2)cc1C [Compound A-94, N-[5-(1H-benzimidazol-2-yl)-1H-pyrazol-3-yl]-4-(2-methoxyethoxy)-3-methyl-benzamide] | < 100
9 | O=C(Nc1cc(-c2nc3cccc(F)c3[nH]2)[nH]n1)c1ccc(OCCO)c(Cl)c1 [Compound A-119, 3-chloro-N-[5-(7-fluoro-1H-benzimidazol-2-yl)-1H-pyrazol-3-yl]-4-(2-hydroxyethoxy)benzamide] | 100 to 300
10 | O=C(Nc1cc(-c2nc3ccccc3[nH]2)[nH]n1)c1ccc(OCCN2CCOCC2)c(Cl)c1 [Compound A-33, N-[5-(1H-benzimidazol-2-yl)-1H-pyrazol-3-yl]-3-chloro-4-(2-morpholinoethoxy)benzamide] | 100 to 300
11 | Cn1nc(NC(=O)c2ccc(N3CCC(O)CC3)nc2)cc1-c1nc2cccc(F)c2[nH]1 [Compound A-134] | 100 to 300
12 | C[C@H]1COCCN1c1ccc(C(=O)Nc2cc(-c3nc4ccccc4[nH]3)n(C)n2)cn1 [Compound A-230, N-[5-(1H-benzimidazol-2-yl)-1-methyl-pyrazol-3-yl] -6-[(3S)-3-methylmorpholin-4-yl]pyridine-3-carboxamide] | 100 to 300
13 | Cn1nc(NC(=O)c2ccc(N3CCN(C(=O)CO)CC3)nc2)cc1-c1nc2ccccc2[nH]1 [Compound A-269, N-[5-(1H-benzimidazol-2-yl)-1-methyl-pyrazol-3-yl]-6-[4-(2-hydroxyacetyl)piperazin-1-yl]pyridine-3-carboxamide] | 100 to 300
14 | COC1CCN(c2ccc(C(=O)Nc3cc(-c4nc5cc(F)ccc5[nH]4)n(C)n3)cn2)CC1 [Compound A-153, N-[5-(5-fluoro-1H-benzimidazol-2-yl)-1-methyl-pyrazol-3-yl]-6-(4-methoxy-1-piperidyl)pyridine-3-carboxamide] | 100 to 300
15 | Cn1nc(NC(=O)c2ccc(N3CCN4C(=O)OCC4C3)nc2)cc1-c1nc2ccccc2[nH]1 (centres unmarked) [Compound A-276, N-[5-(1H-benzimidazol-2-yl)-1-methyl-pyrazol-3-yl]-6-(3-oxo-5,6,8,8a-tetrahydro-1H-oxazolo[3,4-a]pyrazin-7-yl)pyridine-3-carboxamide] | < 100
16 | O=C(Nc1cc(-c2nc3ccccc3[nH]2)[nH]n1)c1ccc(N2CCC(N3CCOCC3)CC2)nc1 [Compound A-172, N-[5-(1H-benzimidazol-2-yl)-1H-pyrazol-3-yl]-6-(4-morpholino-1-piperidyl)pyridine-3-carboxamide] | < 100
17 | Cn1nc(NC(=O)c2ccc(N3CCN(CCO)CC3)nc2)cc1-c1nc2cccc(F)c2[nH]1 [Compound A-158] | 100 to 300
18 | Cn1nc(NC(=O)c2ccc(N3CCN(CCO)CC3)nc2)cc1-c1nc2cc(F)ccc2[nH]1 [Compound A-150] | 100 to 300
19 | Cn1nc(NC(=O)c2ccc(N3CC4(COC4)C3)nc2)cc1-c1nc2ccccc2[nH]1 [Compound A-275, N-[5-(1H-benzimidazol-2-yl)-1-methyl-pyrazol-3-yl]-6-(2-oxa-6-azaspiro[3.3]heptan-6-yl)pyridine-3-carboxamide] | 100 to 300
20 | O=C(O)CN1CCN(c2ccc(C(=O)Nc3cc(-c4nc5ccccc5[nH]4)[nH]n3)cc2)CC1 [Compound A-199, 2-[4-[4-[[5-(1H-benzimidazol-2-yl)-1H-pyrazol-3-yl]carbamoyl]phenyl]-piperazin-1-yl]acetic acid hydrochloride] | 100 to 300
21 | O=C(Nc1cc(-c2nc3ccccc3[nH]2)[nH]n1)c1ccc(N2CCN(CCO)CC2)nc1 [Compound A-143, N-[5-(1H-benzimidazol-2-yl)-1H-pyrazol-3-yl]-6-[4-(2-hydroxyethyl)-piperazin-1-yl]pyridine-3-carboxamide] | 100 to 300
22 | Cn1nc(NC(=O)c2ccc(OCCO)c(Cl)c2)cc1-c1nc2cc(F)ccc2[nH]1 [Compound A-167, 3-chloro-N-[5-(5-fluoro-1H-benzimidazol-2-yl)-1-methyl-pyrazol-3-yl]-4-(2-hydroxyethoxy)benzamide] | < 100
23 | Cn1nc(NC(=O)c2ccc(N3CCC(O)(CCO)CC3)nc2)cc1-c1nc2ccccc2[nH]1 [Compound A-283, N-[5-(1H-benzimidazol-2-yl)-1-methyl-pyrazol-3-yl]-6-[4-hydroxy-4-(2-hydroxyethyl)-1-piperidyl]pyridine-3-carboxamide] | < 100
24 | C[C@@H]1CN(c2ccc(C(=O)Nc3cc(-c4nc5ccccc5[nH]4)n(C)n3)cn2)C[C@H](C)N1 [Compound A-255, N-[5-(1H-benzimidazol-2-yl)-1-methyl-pyrazol-3-yl]-6-[(3R,5S)-3,5-dimethylpiperazin-1-yl]pyridine-3-carboxamide] | < 100
25 | COc1ccc(C(=O)Nc2cc(-c3nc4cccc(F)c4[nH]3)n(C)n2)cc1Cl [Compound A-125, 3-chloro-N-[5-(7-fluoro-1H-benzimidazol-2-yl)-1-methyl-pyrazol-3-yl]-4-methoxy-benzamide] | 100 to 300
26 | COc1ccn2cc(-c3cc(NC(=O)c4ccc(OC)c(Cl)c4)n[nH]3)nc2c1 [Compound A-162, 3-chloro-4-methoxy-N-[5-(7-methoxyimidazo[1,2-a]pyridin-2-yl)-1H-pyrazol-3-yl]benzamide] | > 1000
